The values that follow are results of earlier work, collected in patent US20030125233A1, “Use of urokinase inhibitors for the treatment and/or prevention of pulmonary hypertension and/or cardiac remodelling” (priority 2000, published 2003).

One data set deals with tumor metastasis. Conditions: Kellen et al. 1988.
Data set [1] has as its system angiogenesis/capillary network formation. Conditions: Alliegro et al. 1991.

In the case of `N=C(N)NC(=O)c1nc(Cl)c(N)nc1N` [amiloride], the “tumor metastasis in vivo” value with tumor metastasis is recorded as “inhibit”. Besides, the “angiogenesis/capillary network formation in vitro” value in data set [1] is listed as “inhibit”.
